Test results taken from ChEMBL document CHEMBL6182949 (J Med Chem, 2025).
Activity calls are given as the source filed them. The rule behind the calls is not given here.

Legend:
[1] = Cmax in Sprague-Dawley rat at 2 mg/kg, iv measured up to 24 hrs by LC-MS/MS analysis; assay type: ADME, organism-based; details: in vivo
[2] = target: Protein cereblon/Interleukin-1 receptor-associated kinase 4 (Homo sapiens, UniProt Q9NWZ3+Q96SW2); assay: PROTAC activity at CRBN/IRAK4 in human PBMC cells assessed as induction of IRAK4 degradation incubated for 24 hrs by HiBiT lytic reagent based analysis; assay type: cell-based
[3] = AUClast in male C57BL/6 mouse at 10 mg/kg, po measured up to 24 hrs by LC-MS/MS analysis; assay type: ADME, organism-based; details: in vivo
[4] = Half life in Beagle dog at 10 mg/kg, po measured up to 24 hrs by LC-MS/MS analysis; assay type: ADME, organism-based, Canis lupus familiaris; details: in vivo
Mus musculus = assay: Anti-arthritic activity against collagen-induced arthritis DBA/1 mouse model assessed as improvement in delta paw volume at 100 mg/kg, po administered for 14 days […]; assay type: functional, organism-based; details: time 14.0 day
[5] = Tmax in cynomolgus monkey at 20 mg/kg, po measured up to 24 hrs by LC-MS/MS analysis; assay type: ADME, organism-based, Macaca fascicularis; details: in vivo
[6] = Oral bioavailability in cynomolgus monkey at 20 mg/kg measured up to 24 hrs by LC-MS/MS analysis; assay type: ADME, organism-based, Macaca fascicularis; details: in vivo

Sequence of Protein cereblon/Interleukin-1 receptor-associated kinase 4 (Q9NWZ3 whole entry): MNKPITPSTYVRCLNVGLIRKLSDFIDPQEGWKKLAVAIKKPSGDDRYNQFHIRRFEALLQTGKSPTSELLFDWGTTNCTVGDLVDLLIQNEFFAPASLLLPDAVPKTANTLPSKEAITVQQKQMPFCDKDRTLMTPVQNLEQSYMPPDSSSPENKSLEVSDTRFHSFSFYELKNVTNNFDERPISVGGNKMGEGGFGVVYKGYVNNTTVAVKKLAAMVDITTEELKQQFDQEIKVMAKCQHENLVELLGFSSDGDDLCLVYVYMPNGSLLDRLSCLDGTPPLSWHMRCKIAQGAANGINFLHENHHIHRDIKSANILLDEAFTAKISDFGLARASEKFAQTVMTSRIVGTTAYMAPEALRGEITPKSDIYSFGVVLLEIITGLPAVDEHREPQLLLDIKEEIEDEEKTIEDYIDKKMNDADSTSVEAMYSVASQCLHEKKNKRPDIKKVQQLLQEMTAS
Sequence of Protein cereblon/Interleukin-1 receptor-associated kinase 4 (Q96SW2 whole entry): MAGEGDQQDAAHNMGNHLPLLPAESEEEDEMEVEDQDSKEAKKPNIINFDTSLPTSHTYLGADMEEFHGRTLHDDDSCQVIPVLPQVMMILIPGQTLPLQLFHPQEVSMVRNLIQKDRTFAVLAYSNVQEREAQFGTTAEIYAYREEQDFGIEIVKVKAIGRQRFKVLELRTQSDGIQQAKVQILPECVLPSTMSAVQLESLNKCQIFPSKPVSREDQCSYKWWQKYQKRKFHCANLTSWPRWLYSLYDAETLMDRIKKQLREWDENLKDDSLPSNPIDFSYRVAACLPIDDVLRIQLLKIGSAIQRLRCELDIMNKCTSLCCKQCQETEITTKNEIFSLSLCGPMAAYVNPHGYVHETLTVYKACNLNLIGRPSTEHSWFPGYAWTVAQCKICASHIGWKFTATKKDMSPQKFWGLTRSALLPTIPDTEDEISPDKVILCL

For Cn1c(=O)n(C2CCC(=O)NC2=O)c2cccc(C#CCO[C@H]3CC[C@H](CN4CCC5(CC4)Cc4cc(NC(=O)c6coc7cccnc67)c(N6CCC(CO)CC6)cc4O5)CC3)c21 (some centres not stated), the Cmax [1] was 14.2 ng/mL, the DC50 [2] was 0.43 nM and the AUC(0-t) at 24 h [3] was 23400 ng·h/mL. The half-life [4] was 10.6 h, the Activity (Mus musculus) was “Active” and the Tmax [5] was 6 h. For the same compound, the bioavailability [6] was 11%.
